Here are results for 16 compounds from patent US20250257060A1, “OXADIAZOLE COMPOUND, PHARMACEUTICAL COMPOSITION COMPRISING SAME, AND USE THEREOF” (SUZHOU GENHOUSE BIO CO., LTD., priority 2022, published 2025).

Each structure is given as a SMILES string.

In general, IC50 refers to the point on the concentration scale where inhibition reaches its midpoint. High values mean weaker potency in that assay, low ones greater potency in that assay.

HDAC6, sequence (Q9UBN7 whole entry): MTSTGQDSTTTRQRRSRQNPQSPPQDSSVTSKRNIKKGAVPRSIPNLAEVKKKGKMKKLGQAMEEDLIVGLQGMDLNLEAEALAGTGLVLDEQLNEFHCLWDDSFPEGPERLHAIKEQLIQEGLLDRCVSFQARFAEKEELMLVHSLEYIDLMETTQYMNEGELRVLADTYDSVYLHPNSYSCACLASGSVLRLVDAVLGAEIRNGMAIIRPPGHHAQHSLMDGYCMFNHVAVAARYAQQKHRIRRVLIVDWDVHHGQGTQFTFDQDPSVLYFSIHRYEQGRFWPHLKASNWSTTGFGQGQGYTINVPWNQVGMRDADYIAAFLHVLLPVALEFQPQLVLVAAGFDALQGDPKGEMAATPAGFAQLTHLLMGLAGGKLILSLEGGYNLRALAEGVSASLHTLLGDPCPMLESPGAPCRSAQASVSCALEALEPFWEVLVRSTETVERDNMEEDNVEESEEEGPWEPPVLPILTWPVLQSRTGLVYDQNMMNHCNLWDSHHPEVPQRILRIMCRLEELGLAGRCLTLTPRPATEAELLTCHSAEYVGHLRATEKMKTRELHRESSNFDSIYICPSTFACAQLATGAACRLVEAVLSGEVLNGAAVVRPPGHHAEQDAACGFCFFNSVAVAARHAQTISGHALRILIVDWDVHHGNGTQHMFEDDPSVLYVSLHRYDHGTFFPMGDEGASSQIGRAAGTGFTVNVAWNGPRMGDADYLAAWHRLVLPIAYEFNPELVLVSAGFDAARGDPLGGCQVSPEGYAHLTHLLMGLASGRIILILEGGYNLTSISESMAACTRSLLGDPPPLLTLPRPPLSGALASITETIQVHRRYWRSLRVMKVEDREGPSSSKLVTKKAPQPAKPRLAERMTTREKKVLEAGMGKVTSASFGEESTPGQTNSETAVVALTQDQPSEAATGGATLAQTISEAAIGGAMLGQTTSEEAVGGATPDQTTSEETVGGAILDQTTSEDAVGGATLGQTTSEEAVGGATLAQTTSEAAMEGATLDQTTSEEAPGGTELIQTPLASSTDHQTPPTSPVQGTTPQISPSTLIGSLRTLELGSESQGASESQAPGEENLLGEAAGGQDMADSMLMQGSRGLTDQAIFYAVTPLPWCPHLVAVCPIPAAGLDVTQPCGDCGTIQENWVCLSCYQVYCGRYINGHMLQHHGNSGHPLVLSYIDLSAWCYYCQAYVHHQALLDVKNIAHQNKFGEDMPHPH

In this assay the target is HDAC6 (Homo sapiens (Human), UniProt Q9UBN7). Put plainly: HDAC6 enzymatic activity assay. Type of assay: biochemical. The method, then:
The inhibitory activity of the compounds of the present application against HDAC6 was evaluated by an enzymatic activity assay. HDAC6 (Abcam), test compounds, and a 20 µM substrate solution (Ac-GAK(Ac)-AMC) were each added to a 384-well plate, and the plate was incubated at 37° C. for 30 min. […] and […] were added, and the plate was incubated at room temperature for 15 min. […] IC50 was obtained by fitting using GraphPadPrism 7.0 software.
As to `O=C(N[C@@H]1CCCC[C@H]1N1Cc2ccc(-c3nnc(C(F)F)o3)cc2S1(=O)=O)C(F)(F)C(F)(F)F` [Compound 3], half-maximal inhibition (IC50) required 46.1 nM.
In turn, `O=C(N[C@@H]1CCCC[C@H]1N1Cc2c(F)cc(-c3nnc(C(F)F)o3)cc2S1(=O)=O)C(F)F` [Compound 40] yielded an IC50 of 252 nM.
In the case of `O=C(NC1CC1)N[C@@H]1CCCC[C@H]1N1Cc2ccc(-c3nnc(C(F)F)o3)cc2S1(=O)=O` [Compound 109] it was 89.8 nM; in that of `O=C(N[C@@H]1CCCC[C@H]1N1C(=O)c2ccc(-c3nnc(C(F)F)o3)cc2S1(=O)=O)C(F)F` [Compound 6], 395 nM; in that of `CNC(=O)N[C@@H]1CCCC[C@H]1N1Cc2ccc(-c3nnc(C(F)F)o3)cc2S1(=O)=O` [Compound 94], 203 nM.
Then `Cn1cc([C@@H](O)[C@H](c2cnn(C)c2)N2Cc3ccc(-c4nnc(C(F)F)o4)cc3S2(=O)=O)cn1` (single isomer, unassigned) [Compound 95j-B], with 29.9 nM; and `COC(=O)N[C@@H]1CCCC[C@H]1N1Cc2ccc(-c3nnc(C(F)F)o3)cc2S1(=O)=O` [Compound 92], with 164 nM; and `Cn1cc([C@H]([C@@H](O)c2ccccc2)N2Cc3ccc(-c4nnc(C(F)F)o4)cc3S2(=O)=O)cn1` (single isomer, unassigned) [Compound 79i-A], with 118 nM.
In the case of `Cn1cc([C@H]([C@@H](O)c2ccccc2)N2Cc3ccc(-c4nnc(C(F)F)o4)cc3S2(=O)=O)cn1` (single isomer, unassigned) [Compound 79i-B] it was 75.9 nM.
With `O=S1(=O)c2cc(-c3nnc(C(F)F)o3)ccc2CN1[C@@H](c1cnccn1)[C@H](O)c1cnccn1` (single isomer, unassigned) [Compound 99j-B], the half-inhibitory concentration (IC50) was determined as 138 nM. Compared with the last compound, the IC50 is about 1.8-fold higher.
Compound `O=S1(=O)c2cc(-c3nnc(C(F)F)o3)ccc2CN1[C@@H](c1ccc(F)cn1)[C@H](O)c1ccc(F)cn1` (single isomer, unassigned) [Compound 88j-A-A] came in with an IC50 of 584 nM. Against the preceding compound, the IC50 is about 4.2-fold higher.
Then `O=S1(=O)c2cc(-c3nnc(C(F)F)o3)ccc2CN1C(c1ccccn1)[C@H](O)c1ccccn1` (stereo partly shown) [Compound 70i-A], with 137 nM; and `O=S1(=O)c2cc(-c3nnc(C(F)F)o3)ccc2CN1[C@@H](c1cnccn1)[C@H](O)c1cnccn1` (single isomer, unassigned) [Compound 99j-A-A], with 205 nM.
`O=S1(=O)c2cc(-c3nnc(C(F)F)o3)ccc2CN1[C@@H](c1ncccn1)[C@@H](O)c1ncccn1` [Compound 103j-C] came in with an IC50 of 226 nM.
Then `Cn1cc([C@@H](O)[C@H](c2cnn(C)c2)N2Cc3ccc(-c4nnc(C(F)F)o4)cc3S2(=O)=O)cn1` (single isomer, unassigned) [Compound 95j-B-B], with 183 nM; and `O=C(NCC1CC1)N[C@@H]1CCCC[C@H]1N1Cc2ccc(-c3nnc(C(F)F)o3)cc2S1(=O)=O` [Compound 110], with 325 nM.
